{"source": "paper PMC5794198", "about": "“Inhibitors of Trypanosoma cruzi Sir2 related protein 1 as potential drugs against Chagas disease” (PLoS Neglected Tropical Diseases, 2018)", "key": {"TcSir2rp1": {"biological_target": "TcSir2rp1 (Trypanosoma cruzi, UniProt Q4DVL9)", "sequence (Q4DVL9 entry or part of it)": "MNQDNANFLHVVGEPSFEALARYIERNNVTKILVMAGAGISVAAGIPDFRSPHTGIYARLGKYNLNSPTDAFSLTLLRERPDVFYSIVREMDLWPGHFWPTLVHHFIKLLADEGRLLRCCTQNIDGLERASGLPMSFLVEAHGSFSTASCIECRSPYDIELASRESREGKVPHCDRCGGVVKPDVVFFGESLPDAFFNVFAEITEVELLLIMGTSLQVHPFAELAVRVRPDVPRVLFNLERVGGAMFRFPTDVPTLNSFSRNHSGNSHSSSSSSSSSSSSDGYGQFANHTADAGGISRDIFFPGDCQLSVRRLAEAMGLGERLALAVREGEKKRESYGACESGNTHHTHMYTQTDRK", "assay": "TcSir2rp1 NAD+-dependent deacetylase fluorimetric assay (CycLex kit)", "format": "biochemical"}, "[1]": {"assay": "MTT cytotoxicity on hepatocytes", "format": "cell-based", "details": "hepatocytes, CC50 cell line / EC50 T. cruzi; read-out: Selectivity Index, hepatocytes", "method": "(§1) To evaluate toxicity towards mammalian cell lines (hepatocytes (Seralab), neurons and MDCK cells (ATCC); a renal cell line from dogs), all the compounds were assayed with MTT [66]. Additionally, for cardiotoxicity evaluation, where toxic effects in cardiomyocytes could be affecting their function before being lethal, a hERG assay was performed according to the manufacturer’s protocol Predictor hERG Fluorescence Polarization Assay (Invitrogen). Briefly, inhibition of hERG channel was analysed by competition of BNIPSpd and a high-affinity red fluorescent hERG channel ligand. BNIPSpd (9) was mixed with the ligand and membranes containing hERG channel, incubated for 2 hrs at RT and the fluorescence polarization was measured using 530 / 590 nm ex/em filters using the Synergy 2 plate reader (Biotek)."}, "Hepatocytes": {"test_system": "Hepatocytes", "assay": "MTT cytotoxicity on hepatocytes", "format": "cell-based", "details": "MTT", "method": "as §1"}, "Neurons [2]": {"test_system": "Neurons", "assay": "MTT cytotoxicity on neurons", "format": "cell-based", "method": "as §1"}, "[3]": {"assay": "MTT cytotoxicity on MDCK cells", "format": "cell-based", "details": "dog, MDCK; CC50 cell line / EC50 T. cruzi; read-out: Selectivity Index, MDCK cells", "method": "as §1"}, "MDCK cells": {"test_system": "MDCK cells", "assay": "MTT cytotoxicity on MDCK cells", "format": "cell-based", "details": "MTT", "method": "as §1"}, "Neurons [4]": {"test_system": "Neurons", "assay": "HCS injury score panel in primary neurons", "format": "cell-based", "method": "In vitro assays were also performed in primary cells (hepatocytes and neurons) to evaluate BNIPSpd (9) potential toxicity: (a) host cell nuclei counting after HOECHST staining, (b) viability by measuring the metabolism of WST-8 probe, (c) apoptosis induction through caspase 3/7 activation, (d) evaluation of mitochondrial dysfunction by measuring the membrane potential using TMRM probe, (e) membrane integrity by measuring the extracellular LDH, (f) DNA damage by histone H2AX phosphorylation (exclusively in hepatocytes) and (g) imaging of neurite outgrowth (exclusively in neurons).\nThe assays were performed 24 hrs after cell collection and isolation. For apoptosis, TMRM, HOECHST and WST-8 assays, cells were seeded at a density of 5000 cells/well in coated 96-well plates, incubated for 24 hrs with the compound and then stained during 1 hour with the following fluorescent probes: 5 μM CellEvent Caspase 3/7 Green Detection Reagent (Invitrogen) for measuring caspase 3/7 activation, 50 μM tetramethyl rhodamine methyl ester (TMRM probe, Anaspec Inc.) for measuring mitochondrial depolarization related to transient cytosolic Ca^2+ signals, 5 μg/mL of HOECHST (Sigma-Aldrich) for nuclei detection and 10 μL/well of WST-8 reagent (Sigma-Aldrich) to detect viable cells. Then, absorbance at 450 nm was measured in order to analyse cell viability (WST-8). Cells were washed three times and analysed using the automatic fluorescence microscope BD Pathway 855. Pictures were taken using a 20 X objective and 488/515 nm ex/em filters for CellEvent Caspase 3/7 reagent, 555/ 645 nm ex/em filters for TMRM and 380/460 nm ex/em filters for HOECHST. Data were analysed with AttoVision (Becton Dickinson). The LDH assay was performed according to the manufacturer's protocol, Cytotoxicity Detection Kit LDH (Roche). LDH release was measured in mU/L in culture media obtained from cells subjected to treatments for 24 hrs, by measuring the released LDH rate of oxidation of NADH to NAD^+ at 340 nm using Synergy 2 from BioTech.\nFor the neurite outgrowth assay, samples were washed with PBS, fixed using methanol for 10 mins at -20°C. The fixed samples were washed three times with PBS and permeabilized with PBS-Triton X-100 0.3% for 10 mins, washed three times and then blocked with BSA 0.5% in PBS for 30 mis. […] Neurite average length was calculated using the neurite outgrowth module of AttoVision software (Becton Dickinson).\nNimesulide (400 μM) was included as a positive toxicity control, and the vehicle as a negative control. The relative percentage of deviation from the negative control was quantified and assigned with a number from 0 to 5 according to the following criteria: 0 (0–20% deviation), 1 (20–40%), 2 (40–60%), 3 (60–100%), 4 (100–1000%), or 5 (>1000% deviation). […]"}, "Solubility": {"assay": "Solubility", "format": "physicochemical"}, "Gastric stability": {"assay": "Gastric stability", "format": "in vitro ADME"}, "[5]": {"details": "single dose 10 μM, 200 μM NAD+, 10 μM peptide"}}}
{"smiles": "O=C1c2cccc3cccc(c23)C(=O)N1CCCNCCCCNCCCNCCCN1C(=O)c2cccc3cccc(c23)C1=O", "note": "[Compound 9, BNIP Spermidine]", "values": [{"measurement": "inhibition at 50 µM", "setting": "TcSir2rp1; 50 μM", "result": "72 ± 6", "unit": "%"}, {"measurement": "Inhibition of NAD+-dependent deacetylase activity of TcSir2rp1", "setting": "TcSir2rp1; [5]", "result": "statistically significant inhibition"}, {"measurement": "inhibition at 10 µM", "setting": "TcSir2rp1; [5]", "result": "~50", "unit": "%"}, {"measurement": "selectivity ratio", "setting": "[1]", "result": "~1"}, {"measurement": "Hepatotoxicity (Hepatocytes) cytotoxicity", "setting": "Hepatocytes", "result": "≥ 3.1", "unit": "µM"}, {"measurement": "Neurotoxicity (Neurons) cytotoxicity", "setting": "Neurons [2]", "result": "≥ 3.9", "unit": "µM"}, {"measurement": "selectivity ratio", "setting": "[3]", "result": 35.2}, {"measurement": "Nephotoxicity (MDCK cells) cytotoxicity", "setting": "MDCK cells", "result": "≥ 100", "unit": "µM"}, {"measurement": "Concentration from which toxicity was most significant in neurons", "setting": "Neurons [4]; HCS panel", "result": 12.5, "unit": "µM"}, {"measurement": "Concentration up to which no effects in neurons", "setting": "Neurons [4]; HCS panel", "result": 0.7, "unit": "µM"}, {"measurement": "Injury score for neurons", "setting": "Neurons [4]; at higher concentrations (50 μM)", "result": "high levels"}, {"measurement": "Injury score for neurons", "setting": "Neurons [4]; combined score of cytotoxicity panel, 24 hrs", "result": "moderate injury (moderate injury (≥5-to <12))"}, {"measurement": "Aqueous solubility", "setting": "Solubility", "result": "up to 70%"}, {"measurement": "Gastric stability", "setting": "Gastric stability", "result": 100, "unit": "%"}]}
